# Tested on: LXRα and/or LXRβ
# Experiment: LXR/LXRE co-transfection assay (luciferase reporter, CV-1 cells)
# Assay type: cell-based, human
# Details: IC50 or EC50 for LXR (LXRα and/or LXRβ, not distinguished), tested as described in Example 109, CV-1 cells
# How it was run: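 Luciferase readout after 20 h compound exposure at 37 °C in CV-1 cells transiently expressing human LXRα or LXRβ with RXRα and an LXRE-driven reporter. Dose-response over 8 points at ½-log spacing, 4 wells each, fitted for EC50/IC50; values average ≥3 independent experiments, efficacy as % of high control.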
row,EC50 [nM],SMILES
1,1000 to 10000,"CC(C)(O)c1ccc(-c2ccc(-c3cc(C(F)(F)F)nn3-c3ncccc3C(F)(F)F)s2)cc1 [Example 1253, 2-[4-(5-{3-(trifluoromethyl)-1-[3-(trifluoromethyl)pyridin-2-yl]-1H-pyrazol-5-yl}-2-thienyl)phenyl]propan-2-ol]"
2,< 1000,"CC(C)(c1cc(-c2ccc(-c3cccc(S(C)(=O)=O)c3)s2)n(-c2ccccc2Cl)n1)N1CCOCC1 [Example 1159, 4-{1-[1-(2-chlorophenyl)-5-{5-[3-(methylsulfonyl)phenyl]-2-thienyl}-1H-pyrazol-3-yl]-1-methylethyl}morpholine]"
3,< 1000,"CC(C)(O)c1cc(-c2ccc(-c3cccc(S(C)(=O)=O)c3)s2)n(-c2cc(Cl)ccc2Oc2ccccc2)n1 [Example 1212, 2-(1-[5-chloro-2-(phenyloxy)phenyl]-5-{5-[3-(methylsulfonyl)phenyl]-2-thienyl}-1H-pyrazol-3-yl)propan-2-ol]"
4,1000 to 10000,"COC(=O)c1cc(-c2ccc(-c3cccc(S(C)(=O)=O)c3)s2)n(-c2ccccc2C(F)(F)F)n1 [Example 1156, methyl 5-{5-[3-(methylsulfonyl)phenyl]-2-thienyl}-1-[2-(trifluoromethyl)phenyl]-1H-pyrazole-3-carboxylate]"
5,< 1000,"CCN(CC)CCN(CC)C(=O)c1cc(-c2ccc(-c3cccc(S(C)(=O)=O)c3)s2)n(-c2ccccc2Cl)n1 [Example 587, 1-(2-chlorophenyl)-N-[2-(diethylamino)ethyl]-N-ethyl-5-{5-[3-(methylsulfonyl)phenyl]-2-thienyl}-1H-pyrazole-3-carboxamide]"
6,< 1000,"CC(=O)c1cc(-c2ccccc2Cl)n(-c2ccc(-c3cccc(S(C)(=O)=O)c3)cc2)n1 [Example 1224, 1-{5-(2-chlorophenyl)-1-[3′-(methylsulfonyl)biphenyl-4-yl]-1H-pyrazol-3-yl}ethanone]"
7,1000 to 10000,"CS(=O)(=O)c1cccc(-c2ccc(-c3cc(CN4CCCC4)nn3-c3ccccc3Cl)s2)c1 [Example 456, 1-(2-chlorophenyl)-5-{5-[3-(methylsulfonyl)phenyl]-2-thienyl}-3-(pyrrolidin-1-ylmethyl)-1H-pyrazole]"
8,1000 to 10000,"O=C(NCCN1CCOCC1)c1ccc(-c2cc(C(F)(F)F)nn2-c2ccccc2Cl)cc1 [Example 970, 4-[1-(2-chlorophenyl)-3-(trifluoromethyl)-1H-pyrazol-5-yl]-N-(2-morpholin-4-ylethyl)benzamide]"
9,1000 to 10000,"CS(=O)(=O)c1cccc(-c2ccc(-c3cc(C(=O)NCC(F)(F)F)nn3-c3ncccc3C(F)(F)F)s2)c1 [Example 1236, 5-{5-[3-(methylsulfonyl)phenyl]-2-thienyl}-N-(2,2,2-trifluoroethyl)-1-[3-(trifluoromethyl)pyridin-2-yl]-1H-pyrazole-3-carboxamide]"
10,< 1000,"COC(=O)c1cc(-c2ccc(-c3cccc(S(C)(=O)=O)c3)cn2)n(-c2ccccc2Cl)n1 [Example 118, methyl 1-(2-chlorophenyl)-5-(5-(3-(methylsulfonyl)phenyl)pyridin-2-yl)-1H-pyrazole-3-carboxylate]"

# The remaining lines, values behind:
row,SMILES,EC50 [nM]
1,"CC(C)(O)c1cc(-c2ccc(-c3cccc(S(C)(=O)=O)c3)s2)n(-c2ccccc2F)n1 [Example 1261, 2-[1-(2-fluorophenyl)-5-{5-[3-(methylsulfonyl)phenyl]-2-thienyl}-1H-pyrazol-3-yl]propan-2-ol]",< 1000
2,"CCC(O)CS(=O)(=O)c1cccc(-c2ccc(-c3cc(C(F)(F)F)nn3-c3cc(Cl)ccc3Cl)s2)c1 (stereo not drawn) [Example 1146, 1-[(3-{5-[1-(2,5-dichlorophenyl)-3-(trifluoromethyl)-1H-pyrazol-5-yl]-2-thienyl}phenyl)sulfonyl]butan-2-ol]",< 1000
3,"O=C(O)Cc1ccc(F)c(-c2ccc(-c3cc(C(F)(F)F)nn3-c3ncccc3C(F)(F)F)s2)c1 [Example 1152, [4-fluoro-3-(5-{3-(trifluoromethyl)-1-[3-(trifluoromethyl)pyridin-2-yl]-1H-pyrazol-5-yl}-2-thienyl)phenyl]acetic acid]",1000 to 10000
4,"CC(=O)c1cc(-c2ccc(-c3cccc(S(=O)(=O)C(C)C)c3)s2)n(-c2ncccc2C(F)(F)F)n1 [Example 1183, 1-{5-(5-{3-[(1-methylethyl)sulfonyl)phenyl}-2-thienyl)-1-[3-(trifluoromethyl)pyridin-2-yl]-1H-pyrazol-3-yl}ethanone]",< 1000
5,"COc1ncc(-c2ccc(-c3cc(C(C)(C)O)nn3-c3ccccc3Cl)cc2)cn1 [Example 1291, 2-[1-(2-chlorophenyl)-5-{4-[2-(methyloxy)pyrimidin-5-yl]phenyl}-1H-pyrazol-3-yl]propan-2-ol]",1000 to 10000
6,"CC(C)(O)c1cc(-c2ccc(-c3cccc(S(C)(=O)=O)c3)s2)n(-c2ccc(Cl)cc2Cl)n1 [Example 1280, 2-[1-(2,4-dichlorophenyl)-5-{5-[3-(methylsulfonyl)phenyl]-2-thienyl}-1H-pyrazol-3-yl]propan-2-ol]",1000 to 10000
7,"CS(=O)(=O)c1cccc(-c2ccc(-c3cc(C(=O)N4CCCC4)nn3-c3c(Cl)cccc3Cl)c(Cl)c2)c1 [Example 143, (5-(3-chloro-3′-(methylsulfonyl)biphenyl-4-yl)-1-(2,6-dichlorophenyl)-1H-pyrazol-3-yl)(pyrrolidin-1-yl)methanone]",< 1000
8,"CC(=O)c1cc(-c2ccc(-c3cccc(S(C)(=O)=O)c3)s2)n(-c2ccccc2Cl)n1 [Example 1150, 1-[1-(2-chlorophenyl)-5-{5-[3-(methylsulfonyl)phenyl]-2-thienyl}-1H-pyrazol-3-yl]ethanone]",< 1000
9,"CC(C)(O)c1cc(-c2ccc(-c3ccc4[nH]ccc4c3)cc2)n(-c2ccccc2Cl)n1 [Example 1283, 2-{1-(2-chlorophenyl)-5-[4-(1H-indol-5-yl)phenyl]-1H-pyrazol-3-yl}propan-2-ol]",1000 to 10000
10,"CC(C)(O)c1cc(-c2ccc(-c3cccc(S(C)(=O)=O)c3)s2)n(-c2ccc(Cl)cc2)n1 [Example 1257, 2-[1-(4-chlorophenyl)-5-{5-[3-(methylsulfonyl)phenyl]-2-thienyl}-1H-pyrazol-3-yl]propan-2-ol]",1000 to 10000
11,"CS(=O)(=O)NC(=O)c1cc(-c2ccc(-c3cccc(S(C)(=O)=O)c3)s2)n(-c2ccccc2C(F)(F)F)n1 [Example 1196, N-(methylsulfonyl)-5-{5-[3-(methylsulfonyl)phenyl]-2-thienyl}-1-[2-(trifluoromethyl)phenyl]-1H-pyrazole-3-carboxamide]",1000 to 10000
12,"Cc1ccc(Cl)c(-n2nc(C(C)(C)O)cc2-c2ccc(-c3cccc(S(C)(=O)=O)c3)s2)c1Cl [Example 1325, 2-[1-(2,6-dichloro-3-methylphenyl)-5-{5-[3-(methylsulfonyl)phenyl]-2-thienyl}-1H-pyrazol-3-yl]propan-2-ol]",< 1000
13,"Cc1cc(-c2cccc(S(C)(=O)=O)c2)ccc1-n1nc(C(C)(C)O)c(Cl)c1-c1ccccc1C(F)(F)F [Example 1420, 2-(4-chloro-1-(3-methyl-3′-(methylsulfonyl)biphenyl-4-yl)-5-(2-(trifluoromethyl)phenyl)-1H-pyrazol-3-yl)propan-2-ol]",< 1000
14,"CS(=O)(=O)c1cccc(-c2ccc(-c3cc(C(=O)O)nn3-c3ccccc3C(F)(F)F)s2)c1 [Example 1193, 5-{5-[3-(methylsulfonyl)phenyl]-2-thienyl}-1-[2-(trifluoromethyl)phenyl]-1H-pyrazole-3-carboxylic acid]",1000 to 10000
15,"CC(C)(O)c1cccc(-c2ccc(-c3cc(C(F)(F)F)nn3-c3c(Cl)cccc3Cl)c(Cl)c2)c1 [Example 1395, 2-(3′-chloro-4′-(1-(2,6-dichlorophenyl)-3-(trifluoromethyl)-1H-pyrazol-5-yl)biphenyl-3-yl)propan-2-ol]",< 1000
16,"CC(C)(O)c1cc(-c2ccc(-c3cccc(S(C)(=O)=O)c3)s2)n(-c2c(F)cccc2Cl)n1 [Example 1344, 2-[1-(2-chloro-6-fluorophenyl)-5-{5-[3-(methylsulfonyl)phenyl]-2-thienyl}-1H-pyrazol-3-yl]propan-2-ol]",< 1000
17,"CC(C)(O)c1cc(-c2ccccc2Cl)n(-c2ccc(-c3cccc(S(C)(=O)=O)c3)cc2)n1 [Example 1217, 2-{5-(2-chlorophenyl)-1-[3′-(methylsulfonyl)biphenyl-4-yl]-1H-pyrazol-3-yl}propan-2-ol]",1000 to 10000
18,"CS(=O)(=O)c1cc(-c2ccc(-c3cc(C(F)(F)F)nn3-c3cc(Cl)ccc3Cl)s2)ccc1OCCc1nnn[nH]1 [Example 1260, 5-(2-{[4-{5-[1-(2,5-dichlorophenyl)-3-(trifluoromethyl)-1H-pyrazol-5-yl]-2-thienyl}-2-(methylsulfonyl)phenyl]oxy}ethyl)-1H-tetrazole]",1000 to 10000
19,"Cc1cc(-n2nc(C(C)(C)O)cc2-c2c(Cl)cccc2Cl)ccc1-c1cccc(S(C)(=O)=O)c1 [Example 1417, 2-(5-(2,6-dichlorophenyl)-1-(2-methyl-3′-(methylsulfonyl)biphenyl-4-yl)-1H-pyrazol-3-yl)propan-2-ol]",1000 to 10000
20,"CC(C)(O)c1cc(-c2ccc(-c3cccc(S(C)(=O)=O)c3)s2)n(-c2cc(F)ccc2Cl)n1 [Example 1334, 2-[1-(2-chloro-5-fluorophenyl)-5-{5-[3-(methylsulfonyl)phenyl]-2-thienyl}-1H-pyrazol-3-yl]propan-2-ol]",< 1000
21,"CN(CC(=O)O)C(=O)c1cc(-c2ccc(-c3cccc(S(C)(=O)=O)c3)s2)n(-c2ccccc2Cl)n1 [Example 1154, N-{[1-(2-chlorophenyl)-5-{5-[3-(methylsulfonyl)phenyl]-2-thienyl}-1H-pyrazol-3-yl]carbonyl}-N-methylglycine]",1000 to 10000
22,"Cc1cc(-c2cccc(S(C)(=O)=O)c2)cc(C)c1-n1nc(C(C)(C)O)cc1-c1ccccc1Cl [Example 146, 2-(5-(2-chlorophenyl)-1-(3,5-dimethyl-3′-(methylsulfonyl)biphenyl-4-yl)-1H-pyrazol-3-yl)propan-2-ol]",< 1000
23,"CC(=O)c1cc(-c2ccccc2Cl)n(-c2ccc(-c3cccc(S(C)(=O)=O)c3)cn2)n1 [Example 1248, 1-[5-(2-chlorophenyl)-1-(5-[3-(methylsulfonyl)phenyl]pyridin-2-yl}-1H-pyrazol-3-yl]ethanone]",1000 to 10000

# — patent US8703805B2 (Exelixis Patent Company LLC, priority 2005, dated 2014)
